Data taken from the supplement of paper PMC11061612.

Assays:
[1] = compound: C[C@@H](Nc1cc(F)cc(F)c1)c1cc(C(=O)N(C)C)cc2c(=O)cc(N3CCOCC3)oc12 [AZD8186]; details: max 3 µM
Outline: (§1)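 Viability was measured with CellTiter-Glo 2.0 luminescence after 72 hours of dosing at a final DMSO of typically 0.2%, and scaled between blank-well and DMSO-well means. Beforehand, cancer cell lines sat 24 hours at 37°C and 5% CO2 in 1536-well plates in 7.5 μl DMEM/F12 or RPMI with 10% FBS. A non-linear mixed effects model fitted two-parameter logistic curves to the dose responses. The single-agent IC50 comes from these fits.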

[2] = compound: C=CCn1c(=O)c2cnc(Nc3ccc(N4CCN(C)CC4)cc3)nc2n1-c1cccc(C(C)(C)O)n1 [AZD1775]
Outline: as §1

[3] = compound: C[C@@H](c1ccc2nccn2c1)n1nnc2ncc(-c3cnn(C)c3)nc21 [Savolitinib]; details: max 1 µM
Outline: as §1

[4] = compound: CC(=O)Nc1cccc(-n2c(=O)n(C3CC3)c(=O)c3c(Nc4ccc(I)cc4F)n(C)c(=O)c(C)c32)c1 [Trametinib]; details: max 1 µM
Outline: as §1

[5] = compound: CCN(CCO)CCCOc1ccc2c(Nc3cc(CC(=O)Nc4cccc(F)c4)[nH]n3)ncnc2c1 [AZD2811]; details: max 1 µM
Outline: as §1

[6] = compound: CS(=O)(=O)CCNCc1ccc(-c2ccc3ncnc(Nc4ccc(OCc5cccc(F)c5)c(Cl)c4)c3c2)o1 [Lapatinib]; details: max 10 µM
Outline: as §1

[7] = compound: CC(=O)c1c(C)c2cnc(Nc3ccc(N4CCNCC4)cn3)nc2n(C2CCCC2)c1=O [Palbociclib]; details: max 10 µM
Outline: as §1

[8] = compound: COc1cccc(OCCCN)c1-c1cc(Nc2cnc(C#N)cn2)n[nH]1 [Prexasertib]; details: max 1 µM
Outline: as §1

[9] = compound: O=C(c1cc(Cc2n[nH]c(=O)c3ccccc23)ccc1F)N1CCN(C(=O)C2CC2)CC1 [Olaparib]; details: max 10 µM
Outline: as §1

[10] = compound: COc1cc2ncnc(Nc3ccc(F)c(Cl)c3)c2cc1OCCCN1CCOCC1 [Gefitinib]; details: max 10 µM
Outline: as §1

[11] = compound: C1CN(CCC1(C(=O)N[C@@H](CCO)C2=CC=C(C=C2)Cl)N)C3=NC=NC4=C3C=CN4 [Capivasertib]; details: max 10 µM
Outline: as §1

[12] = compound: CCc1c2c(nc3ccc(O)cc13)-c1cc3c(c(=O)n1C2)COC(=O)[C@]3(O)CC [SN-38]; details: max 0.3 µM
Outline: as §1

[13] = compound: CN(CC[C@H](CSC1=CC=CC=C1)NC2=C(C=C(C=C2)S(=O)(=O)NC(=O)C3=CC=C(C=C3)N4CCC(CC4)[C@H](C5=CC=CC=C5C6=CC=C(C=C6)Cl)O)S(=O)(=O)C(F)(F)F)CCO [AZD4320]; details: max 1 µM
Outline: as §1

[14] = compound: CC1=C(C(=CC=C1)Cl)NC(=O)C2=CN=C(S2)NC3=CC(=NC(=N3)C)N4CCN(CC4)CCO [Dasatinib]; details: max 2 µM
Outline: as §1

[15] = compound: NC1(c2ccc(-c3nc4ccn5c(=O)[nH]nc5c4cc3-c3ccccc3)cc2)CCC1 [MK-2206]; details: max 10 µM
Outline: as §1

[16] = compound: COc1cccc2c1C(=O)c1c(O)c3c(c(O)c1C2=O)C[C@@](O)(C(=O)CO)C[C@@H]3O[C@H]1C[C@H](N)[C@H](O)[C@H](C)O1 [Doxorubicin]; details: max 1 µM
Outline: as §1

[17] = compound: Cc1c2c(nn1C)CSCc1cc(n(C)n1)CSc1cc(c3ccccc3c1)OCCCc1c(C(=O)O)n(C)c3c-2c(Cl)ccc13 [AZD5991]; details: max 1 µM
Outline: as §1

[18] = compound: COc1nnc2ccc(N3CCC(c4ccc(OCCN5CCN(C)C(=O)[C@H]5C)cc4)CC3)nn12 [AZD5153]; details: max 1 µM
Outline: as §1

[19] = compound: C[C@@H]1COCCN1C2=NC(=NC(=C2)C3(CC3)[S@](=N)(=O)C)C4=C5C=CNC5=NC=C4 [AZD6738]; details: max 10 µM
Outline: as §1

[20] = compound: CC1=CN2[C@@H](C1)C=NC3=CC(=C(C=C3C2=O)OC)OCCCCCOC4=C(C=C5C(=C4)N=C[C@@H]6CC(=CN6C5=O)C)OC [SG3199]; details: max 0.001 µM
Outline: as §1

[21] = compound: COc1cc(Nc2ncc3c(n2)-c2ccc(Cl)cc2C(c2c(F)cccc2OC)=NC3)ccc1C(=O)O [Alisertib]; details: max 10 µM
Outline: as §1

[22] = compound: Cc1nc(-c2cn3c(n2)-c2ccc(-c4cnn(C(C)(C)C(N)=O)c4)cc2OCC3)n(C(C)C)n1 [Taselisib]; details: max 10 µM
Outline: as §1

[23] = compound: Cc1cc2ncnn2cc1Nc1ncc2c(n1)n(C1CCOCC1)c(=O)n2C [AZD7648]; details: max 10 µM
Outline: as §1

[24] = compound: CC(C)n1c(=O)n(C)c2cnc3cc(F)c(-c4ccc(OCCCN5CCCCC5)nc4)cc3c21 [AZD1390]; details: max 0.3 µM
Outline: as §1

[25] = compound: C[C@@H](Oc1cc(-c2cnn(C3CCNCC3)c2)cnc1N)c1c(Cl)ccc(F)c1Cl [Crizotinib]; details: max 10 µM
Outline: as §1

[26] = compound: CC1(C)CCC(CN2CCN(c3ccc(C(=O)NS(=O)(=O)c4ccc(NCC5CCOCC5)c([N+](=O)[O-])c4)c(Oc4cnc5[nH]ccc5c4)c3)CC2)=C(c2ccc(Cl)cc2)C1 [Venetoclax]; details: max 1 µM
Outline: as §1

[27] = compound: CN(C)CCCOc1ccc(-c2ccc3ncc4c(c3c2)n(C2CCOCC2)c(=O)n4C)cn1 [AZD0156]
Outline: as §1

[28] = compound: Cn1cnc2c(F)c(Nc3ccc(Br)cc3Cl)c(C(=O)NOCCO)cc21 [Selumetinib]; details: max 10 µM
Outline: as §1

Cell Line	IC50, cell viability 72 h [1] [nM]	IC50, cell viability 72 h ([2]; max 3 µM) [nM]	IC50, cell viability 72 h [3] [nM]	IC50, cell viability 72 h [4] [nM]	IC50, cell viability 72 h [5] [nM]	IC50, cell viability 72 h [6] [µM]	IC50, cell viability 72 h [7] [µM]	IC50, cell viability 72 h [8] [nM]	IC50, cell viability 72 h [9] [µM]	IC50, cell viability 72 h [10] [µM]	IC50, cell viability 72 h [11] [µM]	IC50, cell viability 72 h [12] [nM]	IC50, cell viability 72 h [13] [nM]	IC50, cell viability 72 h [14] [nM]	IC50, cell viability 72 h [15] [µM]	IC50, cell viability 72 h [16] [nM]	IC50, cell viability 72 h [17] [nM]	IC50, cell viability 72 h [18] [nM]	IC50, cell viability 72 h [19] [nM]	IC50, cell viability 72 h [20] [nM]	IC50, cell viability 72 h [21] [µM]	IC50, cell viability 72 h [22] [µM]	IC50, cell viability 72 h [23] [µM]	IC50, cell viability 72 h [24] [nM]	IC50, cell viability 72 h [25] [µM]	IC50, cell viability 72 h [26] [nM]	IC50, cell viability 72 h ([27]; max 3 µM) [nM]	IC50, cell viability 72 h [28] [µM]	IC50, cell viability 72 h ([2]; max 1 µM) [nM]	IC50, cell viability 72 h ([27]; max 1 µM) [nM]
ASH-3 (Thyroid Gland Carcinoma)	> 3000	> 3000	> 1000	> 1000	> 1000	> 10	> 10	569	> 10	> 10	> 10	28.8	> 1000	1240	> 10	688	> 1000	283	> 10000	> 1	> 10	6.86	> 10	> 300	> 10	> 1000	> 3000	> 10	–	–
RPMI-7951 (Melanoma)	2730	489	> 1000	136	> 1000	> 10	> 10	19.4	> 10	> 10	3.38	15.8	> 1000	130	–	173	488	630	2250	> 1	2.14	2.35	> 10	> 300	5.75	> 1000	> 3000	> 10	–	–
KYSE-150 (Esophageal Squamous Cell Carcinoma)	> 3000	1150	> 1000	498	> 1000	3.19	> 10	> 1000	> 10	> 10	> 10	117	> 1000	> 2000	> 10	158	> 1000	420	> 10000	> 1	5.85	1.34	> 10	> 300	4.28	> 1000	> 3000	> 10	–	–
EW-13 (Ewing's Sarcoma)	> 3000	–	> 1000	> 1000	> 1000	> 10	> 10	829	> 10	> 10	> 10	8.64	270	> 2000	–	467	> 1000	> 1000	> 10000	> 1	> 10	> 10	> 10	> 300	> 10	> 1000	–	> 10	> 1000	> 1000
KU-19-19 (Bladder Carcinoma)	> 3000	462	> 1000	6.44	> 1000	> 10	> 10	36.1	> 10	> 10	> 10	41.6	> 1000	711	> 10	447	> 1000	117	2160	> 1	5.63	> 10	> 10	> 300	> 10	> 1000	> 3000	0.678	–	–
A704 (Kidney Carcinoma)	1540	2510	> 1000	> 1000	> 1000	8.79	> 10	> 1000	> 10	> 10	> 10	274	> 1000	110	–	> 1000	> 1000	538	> 10000	> 1	5.35	> 10	> 10	> 300	> 10	> 1000	> 3000	> 10	–	–
NCI-H322M (Lung Adenocarcinoma)	> 3000	349	> 1000	156	> 1000	7.36	> 10	10.6	> 10	0.816	> 10	98.7	> 1000	1960	–	735	> 1000	742	1130	> 1	> 10	0.692	> 10	> 300	> 10	> 1000	> 3000	2.89	–	–
GOTO (Neuroblastoma)	> 3000	650	> 1000	> 1000	332	6.07	7.01	11.8	> 10	> 10	> 10	3.91	> 1000	> 2000	–	193	398	91.7	592	> 1	0.272	4.55	> 10	> 300	1.64	> 1000	> 3000	> 10	–	–
